Numbers after ± are expanded uncertainties.
Experiment: mn = molality of the nth substance listed, in mol/kg
Details: 101 kPa, Liquid; for mass density: Vibrating tube method; for speed of sound: Pulse-echo method

O=S(=O)([O-])C(F)(F)F.[Na+] [sodium trifluoromethanesulfonate] + CN(C)C=O
Details | mass density, 283.15 K [kg/m3] | mass density, 293.15 K [kg/m3] | mass density, 298.15 K [kg/m3] | mass density, 303.15 K [kg/m3] | mass density, 313.15 K [kg/m3] | mass density, 323.15 K [kg/m3] | mass density, 333.15 K [kg/m3] | speed of sound, 298.15 K [m/s]
m1 = 0.03242 | 961.31 ± 0.31 | 951.8 ± 0.31 | 947.04 ± 0.31 | 942.26 ± 0.31 | 932.69 ± 0.31 | 923.07 ± 0.31 | 913.39 ± 0.31 | –
m1 = 0.04301 | 962.37 ± 0.31 | 952.86 ± 0.31 | 948.1 ± 0.31 | 943.33 ± 0.31 | 933.75 ± 0.31 | 924.13 ± 0.31 | 914.46 ± 0.31 | –
m1 = 0.05649 | 963.72 ± 0.31 | 954.21 ± 0.31 | 949.44 ± 0.31 | 944.67 ± 0.31 | 935.1 ± 0.31 | 925.48 ± 0.31 | 915.81 ± 0.31 | –
m1 = 0.07002 | 965.07 ± 0.31 | 955.56 ± 0.31 | 950.8 ± 0.31 | 946.03 ± 0.31 | 936.46 ± 0.31 | 926.83 ± 0.31 | 917.16 ± 0.31 | 1456.8 ± 1.3
m1 = 0.08981 | 967.04 ± 0.31 | 957.54 ± 0.31 | 952.77 ± 0.31 | 948 ± 0.31 | 938.43 ± 0.31 | 928.81 ± 0.31 | 919.14 ± 0.31 | 1456.7 ± 1.3
m1 = 0.1114 | 969.21 ± 0.32 | 959.69 ± 0.32 | 954.93 ± 0.32 | 950.16 ± 0.32 | 940.6 ± 0.32 | 930.98 ± 0.32 | 921.31 ± 0.32 | 1456.6 ± 1.3
m1 = 0.1445 | 972.54 ± 0.32 | 963.02 ± 0.32 | 958.25 ± 0.32 | 953.48 ± 0.32 | 943.91 ± 0.32 | 934.29 ± 0.32 | 924.63 ± 0.32 | 1456.4 ± 1.3
m1 = 0.1748 | 975.61 ± 0.32 | 966.08 ± 0.32 | 961.32 ± 0.32 | 956.54 ± 0.32 | 946.97 ± 0.32 | 937.35 ± 0.32 | 927.69 ± 0.32 | 1456.2 ± 1.3
m1 = 0.2026 | 978.41 ± 0.33 | 968.91 ± 0.33 | 964.12 ± 0.33 | 959.34 ± 0.33 | 949.76 ± 0.32 | 940.13 ± 0.32 | 930.5 ± 0.32 | 1456.1 ± 1.3
m1 = 0.239 | 982.12 ± 0.33 | 972.58 ± 0.33 | 967.82 ± 0.33 | 963.03 ± 0.33 | 953.44 ± 0.33 | 943.82 ± 0.33 | 934.15 ± 0.33 | 1455.9 ± 1.3
m1 = 0.2681 | 985.09 ± 0.33 | 975.55 ± 0.33 | 970.79 ± 0.33 | 966.01 ± 0.33 | 956.41 ± 0.33 | 946.79 ± 0.33 | 937.1 ± 0.33 | 1455.7 ± 1.3

O=S(=O)([O-])C(F)(F)F.O=S(=O)([O-])C(F)(F)F.O=S(=O)([O-])C(F)(F)F.[Lu+3] [lutetium(III) trifluoromethanesulfonate] + CC(=O)N(C)C
Details | mass density, 283.15 K [kg/m3] | mass density, 293.15 K [kg/m3] | mass density, 298.15 K [kg/m3] | mass density, 303.15 K [kg/m3] | mass density, 313.15 K [kg/m3] | mass density, 323.15 K [kg/m3] | mass density, 333.15 K [kg/m3] | speed of sound, 298.15 K [m/s]
m1 = 0.02294 | 960.37 ± 0.94 | 951.15 ± 0.94 | 946.53 ± 0.94 | 941.91 ± 0.94 | 932.67 ± 0.94 | 923.39 ± 0.94 | 914.07 ± 0.93 | 1455.7 ± 1.3
m1 = 0.03057 | 963.84 ± 0.94 | 954.61 ± 0.94 | 950 ± 0.94 | 945.38 ± 0.94 | 936.11 ± 0.94 | 926.83 ± 0.94 | 917.5 ± 0.93 | 1455.4 ± 1.3
m1 = 0.0402 | 968.22 ± 0.94 | 958.99 ± 0.94 | 954.37 ± 0.94 | 949.75 ± 0.94 | 940.48 ± 0.94 | 931.19 ± 0.94 | 921.86 ± 0.94 | 1455 ± 1.3
m1 = 0.05161 | 973.43 ± 0.96 | 964.19 ± 0.95 | 959.57 ± 0.96 | 954.95 ± 0.95 | 945.68 ± 0.95 | 936.38 ± 0.95 | 927.05 ± 0.95 | 1454.7 ± 1.3
m1 = 0.06304 | 978.74 ± 0.97 | 969.5 ± 0.96 | 964.89 ± 0.96 | 960.24 ± 0.96 | 950.96 ± 0.96 | 941.65 ± 0.96 | 932.31 ± 0.96 | 1454.3 ± 1.3
m1 = 0.07962 | 986.46 ± 0.98 | 977.21 ± 0.98 | 972.58 ± 0.98 | 967.95 ± 0.98 | 958.66 ± 0.98 | 949.34 ± 0.98 | 939.99 ± 0.97 | 1453.7 ± 1.3
m1 = 0.1022 | 997.19 ± 1 | 987.92 ± 0.99 | 983.29 ± 0.99 | 978.65 ± 0.99 | 969.35 ± 0.99 | 960.02 ± 0.99 | 950.65 ± 0.99 | 1452.2 ± 1.3
m1 = 0.1222 | 1006.81 ± 1 | 997.54 ± 1 | 992.9 ± 1 | 988.26 ± 1 | 978.94 ± 1 | 969.59 ± 1 | 960.2 ± 1 | 1451.5 ± 1.4
m1 = 0.1412 | 1016.12 ± 1 | 1006.84 ± 1 | 1002.2 ± 1 | 997.55 ± 1 | 988.22 ± 1 | 978.86 ± 1 | 969.47 ± 1 | 1450.5 ± 1.4
m1 = 0.1647 | 1027.86 ± 1.1 | 1018.56 ± 1.1 | 1013.91 ± 1.1 | 1009.26 ± 1.1 | 999.92 ± 1.1 | 990.55 ± 1.1 | 981.13 ± 1.1 | 1449 ± 1.4
m1 = 0.1843 | 1037.79 ± 1.1 | 1028.48 ± 1.1 | 1023.83 ± 1.1 | 1019.21 ± 1.1 | 1009.81 ± 1.1 | 1000.43 ± 1.1 | 991.01 ± 1.1 | 1448.3 ± 1.4

O=S(=O)([O-])C(F)(F)F.O=S(=O)([O-])C(F)(F)F.O=S(=O)([O-])C(F)(F)F.[Gd+3] [gadolinium (III) trifluoromethanesulfonate] + CC(=O)N(C)C
Details | mass density, 283.15 K [kg/m3] | mass density, 293.15 K [kg/m3] | mass density, 298.15 K [kg/m3] | mass density, 303.15 K [kg/m3] | mass density, 313.15 K [kg/m3] | mass density, 323.15 K [kg/m3] | mass density, 333.15 K [kg/m3] | speed of sound, 298.15 K [m/s]
m1 = 0.02128 | 959.25 ± 0.9 | 950.04 ± 0.9 | 945.43 ± 0.9 | 940.82 ± 0.9 | 931.58 ± 0.9 | 922.32 ± 0.9 | 913.01 ± 0.9 | 1456.1 ± 1.3
m1 = 0.02915 | 962.65 ± 0.9 | 953.45 ± 0.9 | 948.84 ± 0.9 | 944.24 ± 0.9 | 935 ± 0.9 | 925.73 ± 0.9 | 916.44 ± 0.91 | 1455.9 ± 1.3
m1 = 0.03784 | 966.42 ± 0.91 | 957.21 ± 0.91 | 952.61 ± 0.91 | 948.01 ± 0.91 | 938.78 ± 0.91 | 929.52 ± 0.91 | 920.23 ± 0.91 | 1455.7 ± 1.3
m1 = 0.04864 | 971.16 ± 0.92 | 961.95 ± 0.92 | 957.35 ± 0.92 | 952.76 ± 0.92 | 943.52 ± 0.92 | 934.27 ± 0.92 | 924.97 ± 0.92 | 1455.4 ± 1.3
m1 = 0.05951 | 975.96 ± 0.92 | 966.76 ± 0.92 | 962.16 ± 0.92 | 957.57 ± 0.92 | 948.33 ± 0.92 | 939.08 ± 0.92 | 929.78 ± 0.92 | 1455 ± 1.3
m1 = 0.07557 | 983.07 ± 0.93 | 973.86 ± 0.93 | 969.27 ± 0.93 | 964.67 ± 0.93 | 955.44 ± 0.93 | 946.19 ± 0.93 | 936.89 ± 0.93 | 1454.7 ± 1.3
m1 = 0.0965 | 992.52 ± 0.95 | 983.33 ± 0.95 | 978.73 ± 0.95 | 974.12 ± 0.95 | 964.89 ± 0.95 | 955.64 ± 0.95 | 946.35 ± 0.95 | 1454 ± 1.3
m1 = 0.1165 | 1001.67 ± 0.97 | 992.48 ± 0.96 | 987.87 ± 0.96 | 983.27 ± 0.96 | 974.05 ± 0.96 | 964.79 ± 0.96 | 955.49 ± 0.96 | 1453.6 ± 1.3
m1 = 0.1341 | 1009.86 ± 0.98 | 1000.66 ± 0.98 | 996.06 ± 0.98 | 991.46 ± 0.98 | 982.24 ± 0.98 | 972.98 ± 0.98 | 963.68 ± 0.98 | 1452.9 ± 1.4
m1 = 0.1567 | 1020.47 ± 1 | 1011.27 ± 1 | 1006.67 ± 1 | 1002.09 ± 1 | 992.85 ± 1 | 983.6 ± 1 | 974.31 ± 1 | 1452.5 ± 1.4
m1 = 0.1757 | 1029.6 ± 1 | 1020.41 ± 1 | 1015.81 ± 1 | 1011.21 ± 1 | 1001.99 ± 1 | 992.73 ± 1 | 983.44 ± 1 | 1451.8 ± 1.4

— the NIST ThermoML archive (doi:10.1016/j.jct.2012.11.004)
